According to patent US9751869B2, “LXR modulators” (BRISTOL-MYERS SQUIBB COMPANY, priority 2013, dated 2017):

Molecular target: T1, LXRβ (Homo sapiens, UniProt P55055)
T1 construct: Co-transfection expression plasmids, comprising full-length LXRα (pCMX-h LXRα or LXRβ (pCMX-hLXRβ)); expressed in transfected cells; host or cells: CV-1 African green monkey kidney cells, transient transfection with pCMX-hLXRβ
T1 sequence (P55055 1-460): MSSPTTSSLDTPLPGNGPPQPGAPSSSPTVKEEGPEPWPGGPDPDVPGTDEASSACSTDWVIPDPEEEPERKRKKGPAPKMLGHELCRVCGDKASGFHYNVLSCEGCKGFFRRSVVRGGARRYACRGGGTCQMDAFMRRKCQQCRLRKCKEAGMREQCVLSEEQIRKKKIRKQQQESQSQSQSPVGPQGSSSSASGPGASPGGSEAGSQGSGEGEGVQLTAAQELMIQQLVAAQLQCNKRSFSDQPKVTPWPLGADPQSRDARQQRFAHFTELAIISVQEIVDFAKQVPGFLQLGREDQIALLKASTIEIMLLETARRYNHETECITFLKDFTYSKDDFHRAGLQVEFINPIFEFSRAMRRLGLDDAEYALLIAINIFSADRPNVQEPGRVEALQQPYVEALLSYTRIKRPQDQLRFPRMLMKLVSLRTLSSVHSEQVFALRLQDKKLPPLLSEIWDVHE
T1 sequence (P19793 1-462 partner): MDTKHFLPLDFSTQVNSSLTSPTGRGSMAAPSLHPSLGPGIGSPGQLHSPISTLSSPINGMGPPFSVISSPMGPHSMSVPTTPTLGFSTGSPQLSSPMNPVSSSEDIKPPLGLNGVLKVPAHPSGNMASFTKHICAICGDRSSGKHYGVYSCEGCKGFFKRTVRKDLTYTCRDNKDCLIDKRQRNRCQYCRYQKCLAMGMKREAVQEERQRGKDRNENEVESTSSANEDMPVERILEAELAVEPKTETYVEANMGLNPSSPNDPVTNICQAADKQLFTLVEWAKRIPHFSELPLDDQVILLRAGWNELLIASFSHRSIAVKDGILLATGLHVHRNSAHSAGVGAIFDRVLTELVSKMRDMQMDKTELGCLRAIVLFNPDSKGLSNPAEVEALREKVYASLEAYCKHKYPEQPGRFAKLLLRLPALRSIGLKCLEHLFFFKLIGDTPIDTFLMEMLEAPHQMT
Experiment: LXR/LXRE co-transfection assay (luciferase reporter) in CV-1 cells, LXRβ
Type: cell-based
Conditions: for EC50: CV-1 cells transfected with pCMX-hLXRβ and LXREx1-Tk-Luciferase, 20 hours incubation, read-out: LXRbeta agonism EC50; for Emax: CV-1 cells, relative to maximum response of high control N-(3-((4-fluorophenyl)-(naphthalene-2-sulfonyl)amino)propyl)-2,2-dimethylpropionamide, read-out: LXRbeta % EFFICACY
Procedure, shortened: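 CV-1 cells transiently co-transfected with full-length human LXRβ, LXRE-Tk-luciferase reporter and β-galactosidase control, then exposed to compound (≤0.5% DMSO) for 20 h at 37 °C before luminescence read. EC50 from 10-point, half-log dose curves; efficacy relative to the sulfonamide high control, means of 2–3 experiments.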

| EC50 [nM] | Emax [%] | Structure (SMILES) |
| --- | --- | --- |
| 71 | 80 | Cc1nc(-c2ccc(OC(F)(F)F)cc2)c(-c2cc(-c3cc(F)c(CO)c(S(C)(=O)=O)c3)ccc2-n2ccc(C#N)n2)o1 [Example 319, 1-(3′-fluoro-4′-(hydroxymethyl)-3-(2-methyl-4-(4-(trifluoromethoxy)phenyl)oxazol-5-yl)-5′-(methylsulfonyl)biphenyl-4-yl)-1H-pyrazole-3-carbonitrile] |
| 25 | 45 | Cn1nc(C(F)(F)C(N)=O)cc1-c1ccc(-c2cc(F)c(CO)c(S(C)(=O)=O)c2)cc1-c1oc(C2CC2)nc1-c1ccc2c(c1)OC(F)(F)O2 [Example 46, 2-(5-(3-(2-cyclopropyl-4-(2,2-difluorobenzo[d][1,3]dioxol-5-yl)oxazol-5-yl)-3′-fluoro-4′-(hydroxymethyl)-5′-(methylsulfonyl)biphenyl-4-yl)-1-methyl-1H-pyrazol-3-yl)-2,2-difluoroacetamide] |
| 258 | 57 | Cc1nc(-c2ccc3c(c2)OC(F)(F)O3)c(-c2cc(-c3cccc(S(C)(=O)=O)c3)ccc2-c2cc(CO)nn2C)o1 [Example 98, (5-(3-(4-(2,2-difluorobenzo[d][1,3]dioxol-5-yl)-2-methyloxazol-5-yl)-3′-(methylsulfonyl)-[1,1′-biphenyl]-4-yl)-1-methyl-1H-pyrazol-3-yl)methanol] |
| 153 | 99 | Cc1cc(C(F)(F)F)nn1-c1ccc(-c2cccc(S(C)(=O)=O)c2)cc1-n1nncc1-c1ccc(OC(F)(F)F)cc1 [Example 300, 1-{3′-(methylsulfonyl)-4-[5-methyl-3-(trifluoromethyl)-1H-pyrazol-1-yl]biphenyl-3-yl}-5-{4-[(trifluoromethyl)oxy]phenyl}-1H-1,2,3-triazole] |
| 19 | 79 | Cc1nc(-c2ccc(OC(F)F)cc2Cl)c(-c2cc(-c3cc(F)c(CO)c(S(C)(=O)=O)c3)ccc2-n2cc(Cl)c(C(F)(F)F)n2)o1 [Example 432, (4′-(4-chloro-3-(trifluoromethyl)-1H-pyrazol-1-yl)-3′-(4-(2-chloro-4-(difluoromethoxy)phenyl)-2-methyloxazol-5-yl)-3-fluoro-5-(methylsulfonyl)-[1,1′-biphenyl]-4-yl)methanol] |
| 38 | 64 | Cc1nc(-c2ccc(OC(F)(F)F)cc2)c(-c2cc(-c3cc(F)c(CO)c(S(C)(=O)=O)c3)ccc2-n2cc(C)c(C(F)(F)F)n2)o1 [Example 439, (3-fluoro-4′-(4-methyl-3-(trifluoromethyl)-1H-pyrazol-1-yl)-3′-(2-methyl-4-(4-(trifluoromethoxy)phenyl)oxazol-5-yl)-5-(methylsulfonyl)-[1,1′-biphenyl]-4-yl)methanol] |
| 948 | 48 | Cc1nc(-c2ccc(OC(F)(F)F)cc2)c(-c2cc(-c3cc(F)c(CO)c(S(C)(=O)=O)c3)ccc2-n2nc(C(F)(F)F)cc2C2CC2)o1 [Example 323, (4′-(5-cyclopropyl-3-(trifluoromethyl)-1H-pyrazol-1-yl)-3-fluoro-3′-(2-methyl-4-(4-(trifluoromethoxy)phenyl)oxazol-5-yl)-5-(methylsulfonyl)biphenyl-4-yl)methanol] |
| 18 | 73 | COc1ncc(-c2oc(C)nc2-c2cc(-c3cc(F)c(CO)c(S(C)(=O)=O)c3)ccc2-n2ccc(C(F)(F)F)n2)cc1F [Example 408, (3-fluoro-3′-(5-(5-fluoro-6-methoxypyridin-3-yl)-2-methyloxazol-4-yl)-5-(methylsulfonyl)-4′-(3-(trifluoromethyl)-1H-pyrazol-1-yl)biphenyl-4-yl)methanol] |
| 126 | 80 | Cn1nc(C(F)F)cc1-c1ccc(-c2cccc(S(C)(=O)=O)c2)cc1-n1nncc1-c1ccc(OC(F)(F)F)cc1 [Example 22, 1-{4-[3-(difluoromethyl)-1-methyl-1H-pyrazol-5-yl]-3′-(methylsulfonyl)biphenyl-3-yl}-5-{4-[(trifluoromethyl)oxy]phenyl}-1H-1,2,3-triazole] |
